Experimental data published in US12091426B2, “Bifunctional degraders of hematopoietic progenitor kinase and therapeutic uses thereof” (Nurix Therapeutics, Inc., priority 2021, dated 2024).

Biological target: T1, HPK1 (Homo sapiens, UniProt Q92918)
T1 construct: A HiBiT tag was introduced by CRISPR on the N terminus of HPK1 in Jurkat cells; host or cells: Jurkat cells (ATCC TIB-152), monoclonal line with CRISPR knock-in of HiBiT at the endogenous HPK1 locus
Assay: HPK1 Cellular HiBit Degradation Assay
Assay type: cell-based
Details: HiBiT HPK1 Jurkat cells, 24 hrs; for DC50: concentration at which 50% of HPK1 was remaining, read-out: DC50 Category; for Dmax: Jurkat, maximum degradation vs DMSO vehicle control, read-out: Dmax Category
Outline: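 Degraders are dosed in an 11-point series (10 uM to 0.1 nM final) onto Jurkat cells carrying an N-terminal HiBiT tag on endogenous HPK1. After 24 hrs at 37° C, lysis-based HiBiT luminescence quantifies remaining HPK1 relative to vehicle, and curve fitting gives DC50 and Dmax.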

T1 sequence (Q92918 whole entry): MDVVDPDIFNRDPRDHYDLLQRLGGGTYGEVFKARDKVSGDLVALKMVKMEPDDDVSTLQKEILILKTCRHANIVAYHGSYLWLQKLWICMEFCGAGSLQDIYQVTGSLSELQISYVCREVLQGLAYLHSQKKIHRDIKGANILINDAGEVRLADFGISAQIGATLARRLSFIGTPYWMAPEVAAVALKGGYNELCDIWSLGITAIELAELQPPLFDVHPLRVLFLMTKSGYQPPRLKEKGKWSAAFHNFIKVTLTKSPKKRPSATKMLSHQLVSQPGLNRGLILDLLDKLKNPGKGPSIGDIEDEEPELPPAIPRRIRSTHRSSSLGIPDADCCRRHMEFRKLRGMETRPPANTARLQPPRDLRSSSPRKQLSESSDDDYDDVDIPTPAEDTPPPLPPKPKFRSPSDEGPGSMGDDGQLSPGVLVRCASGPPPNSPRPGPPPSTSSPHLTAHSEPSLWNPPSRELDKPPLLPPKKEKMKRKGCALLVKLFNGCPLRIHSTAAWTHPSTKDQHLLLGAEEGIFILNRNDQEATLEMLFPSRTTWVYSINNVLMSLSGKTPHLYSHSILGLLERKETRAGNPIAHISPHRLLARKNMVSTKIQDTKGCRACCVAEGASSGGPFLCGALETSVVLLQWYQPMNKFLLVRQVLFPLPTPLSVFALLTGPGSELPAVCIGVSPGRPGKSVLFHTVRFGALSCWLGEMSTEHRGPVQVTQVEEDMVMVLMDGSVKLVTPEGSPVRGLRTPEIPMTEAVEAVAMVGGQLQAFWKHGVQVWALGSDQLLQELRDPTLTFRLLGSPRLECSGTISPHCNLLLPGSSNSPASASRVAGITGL

| DC50 [nM] | Dmax [%] | Structure (SMILES) |
| --- | --- | --- |
| < 100 | 70 to 85 | CC(C)n1cnc2cc(-c3ccc4c(c3)N([C@H]3C[C@@H](N5CCCCC5)C3)C(=O)C43CCN(C(=O)C4(F)CCN(C(=O)C5CCN(c6ccc(C7CCC(=O)NC7=O)cn6)CC5)CC4)CC3)nc(NC3CC3)c21 (mixture of isomers) [Example 277, (3RS)-3-(6-{4-[4-({6-[4-(cyclopropylamino)-3-(propan-2-yl)-3H-imidazo[4,5-c]pyridin-6-yl]-2-oxo-1-[(1S,3S)-3-(piperidin-1-yl)cyclobutyl]-1,2-dihydrospiro[indole-3,4′-piperidin]-1′-yl}carbonyl)-4-fluoropiperidine-1-carbonyl]piperidin-1-yl}pyridin-3-yl)piperidine-2,6-dione] |
| < 100 | 70 to 85 | CC(C)n1cnc2cc(-c3ccc4c(c3)N([C@H]3C[C@@H](N5CCCCC5)C3)C(=O)C43CCN(C(=O)[C@@H]4CCCN(C(=O)CC5CCN(c6ccc(C7CCC(=O)NC7=O)cn6)CC5)C4)CC3)nc(NC3CC3)c21 (mixture of isomers) [Example 235, (3RS)-3-[6-(4-{2-[(3R)-3-({6-[4-(cyclopropylamino)-3-(propan-2-yl)-3H-imidazo[4,5-c]pyridin-6-yl]-2-oxo-1-[(1S,3S)-3-(piperidin-1-yl)cyclobutyl]-1,2-dihydrospiro[indole-3,4′-piperidin]-1′-yl}carbonyl)piperidin-1-yl]-2-oxoethyl}piperidin-1-yl)pyridin-3-yl]piperidine-2,6-dione] |
| < 100 | 70 to 85 | CC(C)n1cnc2cc(-c3ccc4c(c3)N([C@H]3C[C@@H](N5CCCCC5)C3)C(=O)C43CCN(C(=O)[C@@H]4CCN(C(=O)[C@H]5CC[C@H](Nc6cccc7c6C(=O)N(C6CCC(=O)NC6=O)C7=O)CC5)C4)CC3)nc(NC3CC3)c21 (mixture of isomers) [Example 10, 2-[(3RS)-2,6-dioxopiperidin-3-yl]-4-{[(1R,4R)-4-[(3R)-3-({6-[4-(cyclopropylamino)-3-(propan-2-yl)-3H-imidazo[4,5-c]pyridin-6-yl]-2-oxo-1-[(1S,3S)-3-(piperidin-1-yl)cyclobutyl]-1,2-dihydrospiro[indole-3,4′-piperidin]-1′-yl}carbonyl)pyrrolidine-1-carbonyl]cyclohexyl]amino}-2,3-dihydro-1H-isoindole-1,3-dione] |
| < 100 | 70 to 85 | CC(C)n1cnc2cc(-c3ccc4c(c3)N([C@H]3C[C@@H](N5CCCCC5)C3)C(=O)C43CCN(C(=O)C4CCN(C(=O)CC5CCN(c6ccc(C7CCC(=O)NC7=O)cn6)CC5)CC4)CC3)nc(Oc3ccccc3F)c21 (stereo partly drawn) [Example 167, 3-[6-(4-{2-[4-({6-[4-(2-fluorophenoxy)-3-(propan-2-yl)-3H-imidazo[4,5-c]pyridin-6-yl]-2-oxo-1-[(1S,3S)-3-(piperidin-1-yl)cyclobutyl]-1,2-dihydrospiro[indole-3,4′-piperidin]-1′-yl}carbonyl)piperidin-1-yl]-2-oxoethyl}piperidin-1-yl)pyridin-3-yl]piperidine-2,6-dione] |
| < 100 | > 85 | CC(C)n1cnc2cc(-c3ccc4c(c3)N([C@H]3C[C@@H](N5CCCCC5)C3)C(=O)C43CCN(C(=O)[C@H]4CN(C(=O)C5CCN(c6ccc(C7CCC(=O)NC7=O)cn6)CC5)C[C@H]4C)CC3)nc(NC3CC3)c21 (mixture of isomers) [Example 248, (3RS)-3-(6-{4-[(3R,4S)-3-({6-[4-(cyclopropylamino)-3-(propan-2-yl)-3H-imidazo[4,5-c]pyridin-6-yl]-2-oxo-1-[(1S,3S)-3-(piperidin-1-yl)cyclobutyl]-1,2-dihydrospiro[indole-3,4′-piperidin]-1′-yl}carbonyl)-4-methylpyrrolidine-1-carbonyl]piperidin-1-yl}pyridin-3-yl)piperidine-2,6-dione] |
| < 100 | > 85 | CC(C)n1cnc2cc(-c3ccc4c(c3)N([C@H]3C[C@@H](N5CCCCC5)C3)C(=O)C43CCN(C(=O)C4CN(C(=O)C5CCN(c6ccc(C7CCC(=O)NC7=O)cn6)CC5)C4)CC3)nc(Nc3ccccc3F)c21 (mixture of isomers) [Example 242, (3RS)-3-[6-(4-{3-[(6-{4-[(2-fluorophenyl)amino]-3-(propan-2-yl)-3H-imidazo[4,5-c]pyridin-6-yl}-2-oxo-1-[(1S,3S)-3-(piperidin-1-yl)cyclobutyl]-1,2-dihydrospiro[indole-3,4′-piperidin]-1′-yl)carbonyl]azetidine-1-carbonyl}piperidin-1-yl)pyridin-3-yl]piperidine-2,6-dione] |
| < 100 | > 85 | CCC1(C(=O)N2CCC3(CC2)C(=O)N([C@H]2C[C@@H](N4CCCCC4)C2)c2cc(-c4cc5ncn(C(C)C)c5c(NC5CC5)n4)ccc23)CCN(C(=O)C2CCN(c3ccc(C4CCC(=O)NC4=O)cn3)CC2)CC1 (mixture of isomers) [Example 255, (3RS)-3-(6-{4-[4-({6-[4-(cyclopropylamino)-3-(propan-2-yl)-3H-imidazo[4,5-c]pyridin-6-yl]-2-oxo-1-[(1S,3S)-3-(piperidin-1-yl)cyclobutyl]-1,2-dihydrospiro[indole-3,4′-piperidin]-1′-yl}carbonyl)-4-ethylpiperidine-1-carbonyl]piperidin-1-yl}pyridin-3-yl)piperidine-2,6-dione] |
| < 100 | 70 to 85 | CC(C)n1cnc2cc(-c3ccc4c(c3)N([C@H]3C[C@@H](N5CCCCC5)C3)C(=O)C43CCN(C(=O)[C@@H]4CCN(C(=O)[C@H]5CC[C@H](Oc6ccc(C7CCC(=O)NC7=O)cn6)CC5)C4)CC3)nc(NC3CCOCC3)c21 (mixture of isomers) [Example 19, (3RS)-3-(6-{[(1R,4R)-4-[(3R)-3-[(6-{4-[(oxan-4-yl)amino]-3-(propan-2-yl)-3H-imidazo[4,5-c]pyridin-6-yl}-2-oxo-1-[(1S,3S)-3-(piperidin-1-yl)cyclobutyl]-1,2-dihydrospiro[indole-3,4′-piperidin]-1′-yl)carbonyl]pyrrolidine-1-carbonyl]cyclohexyl]oxy}pyridin-3-yl)piperidine-2,6-dione] |
| 500 to 1000 | 50 to 70 | CC(C)n1cnc2cc(-c3ccc4c(c3)N([C@H]3C[C@@H](N5CC6CCC(C5)O6)C3)C(=O)C43CCN(C(=O)C4(C)CCN(C(=O)CC5CCN(c6ccc(C7CCC(=O)NC7=O)cn6)CC5)CC4)CC3)nc(NC3CC3)c21 (mixture of isomers) [Example 207, (3RS)-3-[6-(4-{2-[4-({6-[4-(cyclopropylamino)-3-(propan-2-yl)-3H-imidazo[4,5-c]pyridin-6-yl]-2-oxo-1-[(1S,3S)-3-{8-oxa-3-Azabicyclo[3.2.1]octan-3-yl}cyclobutyl]-1,2-dihydrospiro[indole-3,4′-piperidin]-1′-yl}carbonyl)-4-methylpiperidin-1-yl]-2-oxoethyl}piperidin-1-yl)pyridin-3-yl]piperidine-2,6-dione] |

| Structure (SMILES) | DC50 [nM] | Dmax [%] |
| --- | --- | --- |
| CC(C)n1cnc2cc(-c3ccc4c(c3)N([C@H]3C[C@@H](N5CCCCC5)C3)C(=O)C43CCN(C(=O)C4C5CCC4CN(C(=O)C4CCN(c6ccc(C7CCC(=O)NC7=O)cn6)CC4)C5)CC3)nc(NC3CC3)c21 (mixture of isomers) [Example 284, (3RS)-3-(6-{4-[8-({6-[4-(cyclopropylamino)-3-(propan-2-yl)-3H-imidazo[4,5-c]pyridin-6-yl]-2-oxo-1-[(1S,3S)-3-(piperidin-1-yl)cyclobutyl]-1,2-dihydrospiro[indole-3,4′-piperidin]-1′-yl}carbonyl)-3-azabicyclo[3.2.1]Octane-3-carbonyl]piperidin-1-yl}pyridin-3-yl)piperidine-2,6-dione] | < 100 | 70 to 85 |
| CC(C)n1cnc2cc(-c3ccc4c(c3)N([C@H]3C[C@@H](N5CCCCC5)C3)C(=O)C43CCN(CC(=O)N(C)C4CCN(C(=O)C5CCN(c6cc(C7CCC(=O)NC7=O)ccn6)CC5)CC4)CC3)nc(NC3CC3)c21 (stereo partly drawn) [Example 201, 2-{6-[4-(cyclopropylamino)-3-(propan-2-yl)-3H-imidazo[4,5-c]pyridin-6-yl]-2-oxo-1-[(1S,3S)-3-(piperidin-1-yl)cyclobutyl]-1,2-dihydrospiro[indole-3,4′-piperidin]-1′-yl}-N-(1-{1-[4-(2,6-dioxopiperidin-3-yl)pyridin-2-yl]piperidine-4-carbonyl}piperidin-4-yl)-N-methylacetamide] | 100 to 500 | 50 to 70 |
| CC(C)n1cnc2cc(-c3ccc4c(c3)N([C@H]3C[C@@H](N5CCCCC5)C3)C(=O)C43CCN(C(=O)C45CC(CN(C(=O)C6CCN(c7ccc(C8CCC(=O)NC8=O)cn7)CC6)C4)C5)CC3)nc(NC3CC3)c21 (mixture of isomers) [Example 271, (3RS)-3-(6-{4-[1-({6-[4-(cyclopropylamino)-3-(propan-2-yl)-3H-imidazo[4,5-c]pyridin-6-yl]-2-oxo-1-[(1S,3S)-3-(piperidin-1-yl)cyclobutyl]-1,2-dihydrospiro[indole-3,4′-piperidin]-1′-yl}carbonyl)-3-azabicyclo[3.1.1]heptane-3-carbonyl]piperidin-1-yl}pyridin-3-yl)piperidine-2,6-dione] | < 100 | 70 to 85 |
| CC(C)n1cnc2cc(-c3ccc4c(c3)N([C@H]3C[C@@H](N5C6COCC5C6)C3)C(=O)C43CCN(C(=O)C4(C)CCN(C(=O)C5CCN(c6ccc(C7CCC(=O)NC7=O)cn6)CC5)CC4)CC3)nc(NC3CC3)c21 (mixture of isomers) [Example 218, (3RS)-3-(6-{4-[4-({6-[4-(cyclopropylamino)-3-(propan-2-yl)-3H-imidazo[4,5-c]pyridin-6-yl]-2-oxo-1-[(1S,3S)-3-{3-oxa-6-azabicyclo[3.1.1]heptan-6-yl}cyclobutyl]-1,2-dihydrospiro[indole-3,4′-piperidin]-1′-yl}carbonyl)-4-methylpiperidine-1-carbonyl]piperidin-1-yl}pyridin-3-yl)piperidine-2,6-dione] | 100 to 500 | 50 to 70 |
